Laboratory results from US20230201301A1 (priority 2020, published 2023).

Columns and labels:
sTREM-1 = system: sTREM-1; set-up: species or system transgenic mice B6.Cg-Tg(K18-ACE2)2Prlmn/J; conditions: mouse, in vivo, ip
SARS-CoV-2 = format: in vivo, transgenic mice B6.Cg-Tg(K18-ACE2)2Prlmn/J
cytokines/chemokines = system: cytokines/chemokines; set-up: species or system transgenic mice B6.Cg-Tg(K18-ACE2)2Prlmn/J; conditions: mouse, in vivo

Q: For LQEEDTGEYGCV (TLT-1 peptide) [LR12], which “plasma sTREM-1 level (median)” value (sTREM-1) is on record?
A: 132.3 pg/mL

Q: What about the “bodyweight loss day 0 to day 10” value (SARS-CoV-2; 2 mg i.p. at t0+1 h, 24, 48, 72, 96 h, vs vehicle, LOCF, FIG. 2-3) of the same sequence?
A: significant reduced bodyweight loss

Q: What about the “mortality (survival D0 to D10)” value (SARS-CoV-2; 2 mg i.p. at t0+1 h, 24, 48, 72, 96 h, vs vehicle, N=16 per treatment group, FIG. 1) of the same sequence?
A: significant reduction in mortality

Q: And the mean respiratory score (SARS-CoV-2; scale 0 (normal respiration) to 5 (dead mouse), up to day 10, 2 mg i.p., vehicle group 5, FIG. 5)?
A: 3

Q: And the mean clinical score (SARS-CoV-2; scale 1 (healthy mouse) to 5 (dead mouse), up to day 10, 2 mg i.p., vehicle group 5, FIG. 4)?
A: 3.5

Q: What about the “IP-10 plasma concentration vs vehicle” value (cytokines/chemokines) of the same sequence?
A: decrease

Q: And the “IFNα plasma concentration vs vehicle” value (cytokines/chemokines; ip)?
A: decrease

Q: And the “IL-6 plasma concentration vs vehicle” value (cytokines/chemokines; ip)?
A: decrease

Q: And the “IL-10 plasma concentration vs vehicle” value (cytokines/chemokines; ip)?
A: increase
